{
  "source": "patent US20200323950A1",
  "about": "“ANTIBACTERIAL PEPTIDES AND COMBINATIONS FOR CO-THERAPY” (priority 2017, published 2020)",
  "key": {"E. coli": {"system": "E. coli", "test": "Synergy results for co-administration of A3-APO (ARV-1501)", "assay_type": "cell-based", "details": "antibiotic co-administered with A3-APO (ARV-1501)"}, "H. influenzae": {"system": "H. influenzae", "test": "Synergy results for co-administration of A3-APO (ARV-1501)", "assay_type": "cell-based", "details": "antibiotic co-administered with A3-APO (ARV-1501)"}, "K. pneumoniae": {"system": "K. pneumoniae", "test": "Synergy results for co-administration of A3-APO (ARV-1501)", "assay_type": "cell-based", "protocol": "Restoring antibiotic sensitivity to resistant bacteria. A colistin-resistant, carbapenem-resistant strain of K. pneumonia (K97/09) from a clinical isolate was used to test the effect of A3-APO treatment on antibiotic resistance. An in vitro assay measuring visible bacterial growth in the presence of A3-APO and imipenem or colistin was performed.\nSynergy Results for Co-administration of A3-APO (ARV-1501)"}, "K. pneumoniae K97/09 [1]": {"system": "K. pneumoniae K97/09", "test": "Bacteremia Synergy Assay 1 (mouse systemic infection)", "assay_type": "in vivo", "protocol": "(§1) In vivo Studies. Animals. Assays 1-2. NMRI (Naval Medical Research Institute) BR or CD-1 mice (Toxi-Coop Zrt, Budapest, Hungary) were housed in plastic type 2 cages, 3-5 mice per cage, on softwood granules as bedding. The room was kept between 21° C. and 25° C. with 12 h light:12 h dark cycles. The animals had free access to tap water and pelleted rodent food. Upon completion of the experiments, surviving mice were euthanized by diethyl ether inhalation. Animals were maintained and handled in accordance with the recommendations of the Guidelines for the Care and Use of Laboratory Animals, and the protocols were approved by the Animal Care Committee of Semmelweis University. The planned 15 treatment groups of mice were divided roughly equally into two assays with 8 and 7 treatment groups and untreated controls in each assay for safe and humane handling of large numbers of mice.\n(§2) Infection models. NMRI mice weighing approximately 20 g (4 weeks old) were infected by intraperitoneal (ip) injection of 4×10^8 CFU/g K. pneumoniae K97/09. Mice were randomly allocated to 8 and […] groups (5 mice per group).\nBacteremia Synergy Assay 1.\nGroup 1: phosphate buffered saline (PBS) subcutaneously (sc) 1 h after infection. Group 2: imipenem 30 mg/kg sc at 2, 14 and 26 h after infection. […]\nSurvival was recorded hourly 24-36 h after infection. […]"}, "[2]": {"system": "multidrug-resistant Klebsiella pneumoniae K97/09", "test": "microbe, parasite or virus in culture"}, "[3]": {"system": "multidrug-resistant Acinetobacter baumannii BAA-1605", "test": "microbe, parasite or virus in culture", "details": "BAA1605"}, "S. typhimurium": {"system": "S. typhimurium", "test": "Synergy results for co-administration of A3-APO (ARV-1501)", "assay_type": "cell-based", "details": "antibiotic co-administered with A3-APO (ARV-1501)"}, "[4]": {"system": "Klebsiella pneumoniae K97/09", "test": "Checkerboard synergy assay (FIC index)", "assay_type": "cell-based", "details": "K. pneumoniae K97/09", "protocol": "In vitro activity and synergy. Minimal inhibitory concentration (MIC) assays were performed using sterile 96-well polypropylene plates in a final volume of […]. Briefly, 50 μL of midlogarithmic phase bacterial cultures were diluted to 5×10^5 CFU/mL in Mueller-Hinton broth (MHB) and then added to 50 μL of the serially diluted antibiotic. The highest A3-APO and other test compound concentration evaluated was 256 mg/L. Cultures were incubated at 37° C. for 16-20 h without shaking. MICs were identified as the lowest antimicrobial concentrations at which turbidity was not observed. Antimicrobial synergy was determined by evaluating the fractional inhibitory concentration (FIC) index and was characterized by a conventional checkerboard assay (Fernandez-Cuenca et al., 2003). Bacteria grown to mid-logarithmic phase in MHB were pre-incubated with serially diluted concentrations of peptides such as A3-APO, and the antimicrobial controls, imipenem, colistin or meropenem.\nThe sum of the FICs (Σ FIC) was calculated with the equation Σ FIC=FICA+FICB=(CA/MICA)+(CB/MICB), where MICA and MICB are the MICs of antimicrobial A and B alone, respectively, and CA and CB are the concentrations of the drugs when combined, respectively. Synergy was defined as a Σ FICs≤0.5 and additive activity was defined as a Σ FICs>0.5≤1.0."}, "[5]": {"system": "Acinetobacter baumannii BAA-1605", "assay_type": "cell-based", "details": "A. baumannii BAA-1605", "description": "In vitro activity and synergy. Minimal inhibitory concentration (MIC) assays were performed using sterile 96-well polypropylene plates in a final volume of 100 mL. Briefly, 50 μL of midlogarithmic phase bacterial cultures were diluted to 5×10^5 CFU/mL in Mueller-Hinton broth (MHB) and then added to 50 μL of the serially diluted antibiotic. […] MICs were identified as the lowest antimicrobial concentrations at which turbidity was not observed. Antimicrobial synergy was determined by evaluating the fractional inhibitory concentration (FIC) index and was characterized by a conventional checkerboard assay (Fernandez-Cuenca et al., 2003)."}, "bacterial DnaK": {"biological_target": "bacterial DnaK (Escherichia coli, UniProt P0A6Y8)", "sequence (P0A6Y8 whole entry)": "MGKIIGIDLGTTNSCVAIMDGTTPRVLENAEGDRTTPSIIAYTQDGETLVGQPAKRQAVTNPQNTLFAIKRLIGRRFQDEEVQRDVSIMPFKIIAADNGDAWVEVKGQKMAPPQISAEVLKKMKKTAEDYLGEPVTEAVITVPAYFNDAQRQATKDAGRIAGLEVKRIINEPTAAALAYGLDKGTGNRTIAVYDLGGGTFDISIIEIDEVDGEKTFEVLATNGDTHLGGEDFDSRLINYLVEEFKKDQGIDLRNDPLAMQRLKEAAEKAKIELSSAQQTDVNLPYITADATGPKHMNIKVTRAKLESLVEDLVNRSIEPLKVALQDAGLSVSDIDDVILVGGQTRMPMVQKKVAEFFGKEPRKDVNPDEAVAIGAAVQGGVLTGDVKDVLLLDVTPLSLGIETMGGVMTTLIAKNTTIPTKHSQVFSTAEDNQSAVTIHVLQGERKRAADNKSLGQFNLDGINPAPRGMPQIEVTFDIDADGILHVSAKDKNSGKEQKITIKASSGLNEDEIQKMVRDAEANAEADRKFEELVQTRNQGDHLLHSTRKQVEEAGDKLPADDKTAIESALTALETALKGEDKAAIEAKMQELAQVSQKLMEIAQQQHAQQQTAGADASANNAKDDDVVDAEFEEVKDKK", "details": "Cassone et al., 2008; cited from earlier work"}, "A. baumannii ATCC 19606": {"system": "A. baumannii ATCC 19606", "test": "Antibacterial assay (MIC)", "assay_type": "cell-based", "details": "A. baumannii ATCC 19606, MHB, 37° C.", "protocol": "(§3) Antibacterial assay. Antibacterial assays are undertaken to determine the minimal inhibitory concentrations (MIC) as described previouslyl^6.\n(§4) Antibacterial activity. Each C-terminal modified PrAMP DTM-linked tetramer is assayed against nosocomial Gram-negative bacteria, including E. coli ATCC 29222, K. pneumoniae ATCC 13883, A. baumannii ATCC 19606 and P. aeruginosa ATCC 47085."}, "E. coli ATCC 29222": {"system": "E. coli ATCC 29222", "test": "Antibacterial assay (MIC)", "assay_type": "cell-based", "details": "E. coli ATCC 29222, MHB, 37° C.", "protocol": "as §3, §4"}, "K. pneumoniae ATCC 13883": {"system": "K. pneumoniae ATCC 13883", "test": "Antibacterial assay (MIC)", "assay_type": "cell-based", "details": "K. pneumoniae ATCC 13883, MHB, 37° C.", "protocol": "as §3, §4"}, "P. aeruginosa ATCC 47085": {"system": "P. aeruginosa ATCC 47085", "test": "Antibacterial assay (MIC)", "assay_type": "cell-based", "details": "P. aeruginosa ATCC 47085, MHB, 37° C.", "protocol": "as §3, §4"}, "[6]": {"system": "panel of Gram-negative nosocomial bacteria (E. coli, K. pneumoniae, A. baumannii, P. aeruginosa)", "test": "Antibacterial assay (MIC), ranges over the panel", "assay_type": "cell-based", "details": "against E. coli, A. baumannii and P. aeruginosa", "protocol": "as §3, §4"}, "K. pneumoniae K97/09 [7]": {"system": "K. pneumoniae K97/09", "test": "Bacteremia Synergy Assay 2 (mouse systemic infection)", "assay_type": "in vivo", "protocol": "as §1, §2\nBacteremia SYNERGY ASSAY 2.\nGroup 1: PBS sc 1 h after infection. Group 2: Colistin 1 mg/kg sc at 2 and 13 h after infection. Group 3: A3-APO 1 mg/kg im 1 and 12 h after infection. Group 4: A3-APO 1 mg/kg im 1 and 12 h after infection, colistin 1 mg/kg sc at 2 and 13 h after infection. […]"}, "[8]": {"system": "multidrug-resistant Klebsiella pneumoniae K97/09", "details": "K. pneumoniae K97/09, compound alone"}, "[9]": {"system": "multidrug-resistant Acinetobacter baumannii BAA-1605", "details": "A. baumannii BAA-1605, compound alone"}},
  "note": "Where two headings read alike, the source gives them in different places. *1 amine or outer side, *2 acyl side, *3 side chain or, on linkers, in order; H or OH if unused. Bridges are numbered along the chain shown (N, C = ends). Roman numbers before positions name the chains, in order. [ ]: non-standard residue; d: D form. The star is where a group is joined. Maleimide(3,4-diyl) = O=C1NC(=O)C([*:2])=C1[*:1]; Ac6c = NC1(C(=O)O)CCCCC1; Dab = NCC[C@H](N)C(=O)O; NHNH2 = NN*",
  "data": [
    {"compound": "CC1(C)S[C@@H]2[C@H](NC(=O)[C@H](N)c3ccc(O)cc3)C(=O)N2[C@H]1C(=O)O", "note": "[amoxicillin]", "values": [
      {"measurement": "Outcome", "setting": "E. coli", "result": "reversal of TEM-1 related"},
      {"measurement": "Outcome", "setting": "H. influenzae", "result": "MIC lowered with priming"}
    ]},
    {"compound": "O=C(N[C@H](CO)[C@H](O)c1ccc([N+](=O)[O-])cc1)C(Cl)Cl", "note": "[chloramphenicol]", "values": [
      {"measurement": "Outcome", "setting": "E. coli", "result": "MIC lowered with priming"},
      {"measurement": "Outcome", "setting": "H. influenzae", "result": "MIC lowered with priming"},
      {"measurement": "Outcome", "setting": "K. pneumoniae; antibiotic co-administered with A3-APO (ARV-1501)", "result": "MIC lowered with priming"}
    ]},
    {"compound": "C[C@@H](O)[C@H]1C(=O)N2C(C(=O)O)=C(SCCN=CN)C[C@H]12", "note": "[imipenem]", "values": [
      {"measurement": "survival improvement at 36 h over untreated controls", "setting": "K. pneumoniae K97/09 [1]; 30 mg/kg sc 3 times (Group 2)", "result": 40, "unit": "%"},
      {"measurement": "MIC", "setting": "[2]", "result": "> 256", "unit": "µg/mL"},
      {"measurement": "MIC", "setting": "[3]", "result": 64, "unit": "µg/mL"}
    ]},
    {"compound": "Cc1cc(NS(=O)(=O)c2ccc(N)cc2)no1", "note": "[sulfamethoxazole]", "values": [
      {"measurement": "Outcome", "setting": "S. typhimurium", "result": "MIC lowered with priming"}
    ]},
    {"compound": "I: H-[Ac6c]RPDKPRPYLGRPRPPRPVR[Dab]-NH2 / II: H-[Ac6c]RPDKPRPYLGRPRPPRPVR (amide I:21-II:C) [Gly11, (H-Chex-Arg-Pro-Asp-Lys-Pro-Arg-Pro-Tyr-Leu-Gly-Arg-Pro-Arg-Pro-Pro-Arg-Pro-Val-Arg)2-Dab-NH2]", "values": [
      {"measurement": "improvement in the MIC values when added together with imipenem or colistin", "setting": "[4]", "result": "failed to exert any improvement"},
      {"measurement": "improvement in the MIC values when added together with imipenem or colistin", "setting": "[5]", "result": "failed to exert any improvement"},
      {"measurement": "DnaK binding", "setting": "bacterial DnaK", "result": "fails to bind bacterial DnaK"}
    ]},
    {"compound": "I: H-[Ac6c]RPDKPRPYLPRPRPPRPVR[Dab]C-NHNH2 / II: H-[Ac6c]RPDKPRPYLPRPRPPRPVR[Dab]C-NHNH2 / III: H-[Ac6c]RPDKPRPYLPRPRPPRPVR / IV: H-[Ac6c]RPDKPRPYLPRPRPPRPVR (amide I:21-III:C, II:21-IV:C; linker I:22-II:22 via Maleimide(3,4-diyl)) [tetramer-DTM-NHNH2]", "values": [
      {"measurement": "Antibacterial activity, MIC", "setting": "A. baumannii ATCC 19606", "result": "2.33 ± 0.48", "unit": "µM"},
      {"measurement": "Antibacterial activity, MIC", "setting": "E. coli ATCC 29222", "result": "0.93 ± 0.02", "unit": "µM"},
      {"measurement": "Antibacterial activity, MIC", "setting": "K. pneumoniae ATCC 13883", "result": "0.49 ± 0.01", "unit": "µM"},
      {"measurement": "Antibacterial activity, MIC", "setting": "P. aeruginosa ATCC 47085", "result": "1.14 ± 0.03", "unit": "µM"},
      {"measurement": "MIC (range over the bacteria)", "setting": "[6]", "result": "0.49 to 2.33", "unit": "µM"}
    ]},
    {"compound": "colistin", "values": [
      {"measurement": "MIC of the antibiotic before co-administration (decrease from)", "setting": "K. pneumoniae; antibiotic without A3-APO", "result": "> 64"},
      {"measurement": "MIC of the antibiotic on co-administration (decrease to)", "setting": "K. pneumoniae; co-administered with A3-APO (ARV-1501)", "result": 1},
      {"measurement": "survival", "setting": "K. pneumoniae K97/09 [1]; 10 mg/kg sc (Group 4), monotherapy", "result": 60, "unit": "%"},
      {"measurement": "reduction of the bacterial burden", "setting": "K. pneumoniae K97/09 [7]; colistin 1 mg/kg sc (Group 2), after 6 h", "result": "< 1", "unit": "log 10 unit"},
      {"measurement": "survival at 36 h", "setting": "K. pneumoniae K97/09 [7]; colistin 1 mg/kg sc twice (Group 2), monotherapy", "result": 40, "unit": "%"},
      {"measurement": "MIC", "setting": "[8]", "result": 64, "unit": "µg/mL"},
      {"measurement": "MIC", "setting": "[9]", "result": "< 0.5", "unit": "µg/mL"}
    ]}
  ]
}
